Measured values from US7067665B2, “Oxybenzamide derivatives useful for inhibiting factor Xa or Vlla” (Sanofi-Aventis Deutschland GmbH, priority 2000, dated 2006).

Biological target: T1, human factor Xa (Homo sapiens, UniProt P00742)
T1 construct: 25 μl human factor Xa (Enzyme Research Laboratories, Inc; South Bend, Ind.); purchased Enzyme Research Laboratories, Inc; South Bend, Ind
Test: Factor Xa chromogenic assay (substrate S-2765);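 further: purified enzyme, compound preincubated with the enzyme for 10 min before substrate addition starts the reaction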
Type: biochemical
Details: inhibition constant for inhibition of factor Xa; IC50 corrected for substrate competition; 25° C., enzyme 0.5 nM, substrate 140 μM; read-out: Ki(FXa)

T1 sequence (P00742 235-488 limits assumed): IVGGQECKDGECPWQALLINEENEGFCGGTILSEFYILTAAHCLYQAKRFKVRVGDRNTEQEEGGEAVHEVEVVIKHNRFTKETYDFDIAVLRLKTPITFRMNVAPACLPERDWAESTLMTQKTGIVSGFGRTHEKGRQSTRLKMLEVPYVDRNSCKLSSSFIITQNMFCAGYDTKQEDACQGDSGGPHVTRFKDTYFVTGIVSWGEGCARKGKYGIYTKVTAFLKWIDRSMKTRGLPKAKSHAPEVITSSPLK
T1 sequence (P00742 41-179 partner limits assumed): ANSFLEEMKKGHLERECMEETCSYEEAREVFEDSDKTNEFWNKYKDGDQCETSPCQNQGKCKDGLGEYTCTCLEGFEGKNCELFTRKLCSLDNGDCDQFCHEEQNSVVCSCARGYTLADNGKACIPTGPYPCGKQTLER

Row | Ki [nM] | SMILES
1 | 25 | COc1cc(C(=O)NCC2CCN(c3ccncc3)CC2)cc(OCCc2ccc(Cl)cc2)c1Cl [Example 202, 4-Chloro-3-[2-(4-chloro-phenyl)-ethoxy]-5-methoxy-N-(3,4,5,6-tetrahydro-2H-[1,4′]bipyridinyl-4-ylmethyl)-benzamide]

Same assay, conditions: read-out: Ki(FXa)

Row | Ki [nM] | SMILES
2 | 226 | CCOc1cc(C(=O)N2CCN(Cc3ccncc3)CC2)cc(OCCc2ccc(Cl)cc2Cl)c1OCC [Example 177, {3-[2-(2,4-Dichloro-phenyl)-ethoxy]-4,5-diethoxy-phenyl}-(4-pyridin-4-ylmethyl-piperazin-1-yl)-methanone]
3 | 255 | CCOc1cc(C(=O)N2CCN(Cc3ccncc3)CC2)cc(OCCc2ccc(Cl)cc2Cl)c1Br [Example 180, {4-Bromo-3-[2-(2,4-dichloro-phenyl)-ethoxy]-5-ethoxy-phenyl}-(4-pyridin-4-ylmethyl-piperazin-1-yl)-methanone]
4 | 312 | O=C(c1ccc(Cl)c(OCCc2ccc(Cl)cc2Cl)c1)N1CCN(Cc2ccncc2)CC1 [Example 182, {4-Chloro-3-[2-(2,4-dichloro-phenyl)-ethoxy]-phenyl}-(4-pyridin-4-ylmethyl-piperazin-1-yl)-methanone]
5 | 617 | CC(C)Oc1ccc(C(=O)N2CCN(Cc3ccncc3)CC2)cc1OCCc1ccc(Cl)cc1Cl [Example 184, {3-[2-(2,4-Dichloro-phenyl)-ethoxy]-4-isopropoxy-phenyl}-(4-pyridin-4-ylmethyl-piperazin-1-yl)-methanone]
6 | 401 | O=C(c1cc(OCCc2ccc(Cl)cc2Cl)c2c(c1)OCO2)N1CCN(Cc2ccncc2)CC1 [Example 186, {7-[2-(2,4-Dichloro-phenyl)-ethoxy]-benzo[1,3]dioxol-5-yl}-(4-pyridin-4-ylmethyl-piperazin-1-yl)-methanone]
7 | 964 | O=C(c1ccc(Cl)c(OCCc2ccc(Cl)cc2Cl)c1)N1CCN(Cc2cc[n+](O)cc2)CC1 [Example 187, {4-Chloro-3-[2-(2,4-dichloro-phenyl)-ethoxy]-phenyl}-[4-(1-oxy-pyridin-4-ylmethyl)-piperazin-1-yl]-methanone]
8 | 6740 | COc1ccc(C(=O)N2CCN(CCCN(C)C)CC2)cc1OCCc1ccc(Cl)cc1Cl [Example 195]
9 | 4270 | COc1ccc(C(=O)N2CCCN(CCCN3CCCC3)CC2)cc1OCCc1ccc(Cl)cc1Cl [Example 196]
10 | 6030 | COc1ccc(C(=O)N2CCN(CCN(C)C)CC2)cc1OCCc1ccc(Cl)cc1Cl [Example 197]
11 | 5000 | COc1ccc(C(=O)N2CCN(CCN3CCCC3)CC2)cc1OCCc1ccc(Cl)cc1Cl [Example 198]
12 | 108 | COc1cc(C(=O)N2CCN(Cc3ccncc3)CC2)cc(OCCc2ccc(Cl)cc2Cl)c1Cl [Example 200, {4-Chloro-3-[2-(2,4-dichloro-phenyl)-ethoxy]-5-methoxy-phenyl}-(4-pyridin-4-ylmethyl-piperazin-1-yl)-methanone]
13 | 68 | O=C(NCC1CCN(c2ccncc2)CC1)c1ccc(Cl)c(OCCc2ccc(F)cc2Cl)c1 [Example 207]
14 | 59 | O=C(NCC1CCN(c2ccncc2)CC1)c1ccc(F)c(OCCc2ccc(F)cc2Cl)c1 [Example 215]
15 | 72 | COc1cc(C(=O)NCC2CCN(c3ccnc(C)c3)CC2)cc(OCCc2ccc(Cl)cc2)c1Cl [Example 222, 4-Chloro-3-[2-(4-chloro-phenyl)-ethoxy]-5-methoxy-N-(2′-methyl-3,4,5,6-tetrahydro-2H-[1,4′]bipyridinyl-4-ylmethyl)-benzamide]
16 | 44 | Cc1cc(N2CCC(CNC(=O)c3ccc(Cl)c(OCCc4ccc(Cl)cc4)c3)CC2)ccn1 [Example 223, 4-Chloro-3-[2-(4-chloro-phenyl)-ethoxy]-N-(2′-methyl-3,4,5,6-tetrahydro-2H-[1,4′]bipyridinyl-4-ylmethyl)-benzamide]
17 | 20 | COc1cc(C(=O)NCC2CCN(c3ccncc3)CC2)cc(OCCc2ccc(Cl)cc2)c1Br [Example 224, 4-Bromo-3-[2-(4-chloro-phenyl)-ethoxy]-5-methoxy-N-(3,4,5,6-tetrahydro-2H-[1,4′]bipyridinyl-4-ylmethyl)-benzamide]
18 | 65 | COc1cc(C(=O)NCC2CCN(c3ccnc(C)c3)CC2)cc(OCCc2ccc(Cl)cc2)c1Br [Example 225, 4-Bromo-3-[2-(4-chloro-phenyl)-ethoxy]-5-methoxy-N-(2′-methyl-3,4,5,6-tetrahydro-2H-[1,4′]bipyridinyl-4-ylmethyl)-benzamide]
19 | 82 | O=C(O)c1cc(OCCc2ccc(Cl)cc2Cl)cc(C(=O)NCC2CCN(c3ccncc3)CC2)c1 [Example 226, 5-[2-(2,4-Dichlorophenyl)-ethoxy]-N-(3,4,5,6-tetrahydro-2H-[1,4′]bipyridinyl-4-ylmethyl)-isophthalamic acid]
20 | 58 | O=C(NCC1CCN(c2ccncc2)CC1)c1cc(OCCc2ccc(Cl)cc2Cl)cc(C(=O)NCC2CCN(c3ccncc3)CC2)c1 [Example 227, 5-[2-(2,4-Dichloro-phenyl)-ethoxy]-N,N′-bis-(3,4,5,6-tetrahydro-2H-[1,4′]bipyridinyl-4-ylmethyl)-isophthalamide]
21 | 220 | COc1cc(C(=O)NCC2CCN(c3cc[n+](O)cc3)CC2)cc(OCCc2ccc(Cl)cc2Cl)c1Cl [Example 228, 4-Chloro-3-[2-(2,4-dichloro-phenyl)-ethoxy]-5-methoxy-N-(1′-oxy-3,4,5,6-tetrahydro-2H-[1,4′]bipyridinyl-4-ylmethyl)-benzamide]
22 | 649 | O=C(NCC1CCN(c2cc[n+](O)cc2)CC1)c1ccc(Cl)c(OCCc2ccc(Cl)cc2Cl)c1 [Example 230, 4-Chloro-3-[2-(2,4-dichloro-phenyl)-ethoxy]-N-(1′-oxy-3,4,5,6-tetrahydro-2H-[1,4′]bipyridinyl-4-ylmethyl)-benzamide]
23 | 227 | O=C(NCC1CCN(c2cc[n+](O)cc2)CC1)c1ccc(Cl)c(OCCc2ccc(Cl)cc2)c1 [Example 231, 4-Chloro-3-[2-(4-chloro-phenyl)-ethoxy]-N-(1′-oxy-3,4,5,6-tetrahydro-2H-[1,4′]bipyridinyl-4-ylmethyl)-benzamide]
24 | 192 | CCN(CC)C(=O)c1cc(OCCc2ccc(Cl)cc2Cl)cc(C(=O)NCC2CCN(c3ccncc3)CC2)c1 [Example 232, 5-[2-(2,4-Dichloro-phenyl)-ethoxy]-N,N-diethyl-N′-(3,4,5,6-tetrahydro-2H-[1,4′]bipyridinyl-4-ylmethyl)-isophthalamide]
25 | 275 | O=C(NCC1CCN(c2ccncc2)CC1)c1cccc(CNCc2ccc(Cl)cc2Cl)c1 [Example 233, 3-[(2,4-Dichloro-benzylamino)-methyl]-N-(3,4,5,6-tetrahydro-2H-[1,4′]bipyridinyl-4-ylmethyl)-benzamide]
26 | 3840 | Cc1ccc(C(=O)NCC2CCN(c3ccncc3)CC2)cc1OCc1ccc(Cl)cc1 [Example 239]
27 | 1340 | COc1ccc(COc2cc(C(=O)NCC3CCN(c4ccncc4)CC3)ccc2C)cc1 [Example 240]
28 | 2170 | COc1cccc(COc2cc(C(=O)NCC3CCN(c4ccncc4)CC3)ccc2C)c1 [Example 241]
29 | 2940 | Cc1ccc(C(=O)NCC2CCN(c3ccncc3)CC2)cc1OCc1ccc(OC(F)(F)F)cc1 [Example 242]
